Test results from patent US10987317B2, “Inhibition of glutaminase C” (Cornell University, priority 2009, dated 2021).
“Also recorded” adds a separate entry of the source.

Experiments:
[1] = system: NIH 3T3 cells expressing H-Ras(G12V); assay: H-Ras(G12V)-induced transformation (focus formation, growth in low serum); type: cell-based; conditions: focus formation in NIH 3T3 cells or growth in low serum
Text: FIGS. 5A-C illustrate comparative abilities of 968 and other benzo[a]phenanthrldinones to inhibit the transforming activity of oncogenic Dbl and H-Ras. […] Histograms show the relative levels of Dbl-induced focus formation for the different treatments, compared to Dbl-induced focus formation measured in the presence of DMSO (i.e. solvent control). Data represent the average of 3 experiments (mean±s.d.). […] Histograms show the relative levels of Ras(G12V)-induced focus formation measured for the different treatments, compared to Ras(G12V)-induced focus formation measured in the presence of DMSO (solvent control). Data represent the average of 3 experiments (mean±s.d.). FIG. 5C NIH 3T3 cells stably expressing H-Ras(G12V) that are cultured in DMEM supplemented with 1% calf serum, with the indicated amounts of 968. After 6 days, cells are trypsinized and counted. 100% represents the number of cells counted in the absence of 968, i.e. 26×10^4 cells. Data represent the average of 3 experiments (mean±s.d.).

normal NIH 3T3 cells = assay: Growth and morphology of control cells; type: cell-based; conditions: 10% calf serum; 5-10 μM
Protocol: FIGS. 1A-E illustrate that the small molecule 968 inhibiting cellular transformation. […] Cells were fixed and stained with crystal violet for counting of foci. Right: 968 was serially diluted (10, 5, 2.5, and 1.25 μM) and evaluated for its ability to inhibit focus formation. […] After 6 days, the cells are counted. 100% represents the number of Dbl-transformed cells counted in the absence of 968 (27.5×10^4 cells). Data represent the average of 3 experiments (±s.d.). […] At the indicated times, the cells are counted. Data represent the average of 3 experiments (±s.d.).

CN(C)c1ccc(C2Nc3ccc4ccccc4c3C3=C2C(=O)CC(C)(C)C3)cc1Br (centres unmarked) [Compound 968, 5-[3-bromo-4-(dimethylamino)phenyl]-2,2-dimethyl-2,3,5,6-tetrahydrobenzo[a]]
potency on Dbl-induced transformation compared to oncogenic H-Ras [1]: more potent inhibitor of Dbl-induced transformation | effect on growth or morphology of normal NIH 3T3 cells (normal NIH 3T3 cells): no significant effects; also recorded: inability
